The target in assay [1] is T1, SMYD3 (Homo sapiens (Human), UniProt Q9H7B4). In words: SMYD3 biochemical assay (SPA, 3H-SAM methylation of MEKK2 protein substrate). The note with it: read-out: SMYD3 Biochem IC50*. The essentials:
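Full-length native human SMYD3 (E. coli-expressed, tags removed) preincubated with compounds 30 min at room temperature, then reaction started with 3H-SAM and GST-tagged MEKK2 protein in 25 mM Tris-Cl pH 8.0, 1 mM TCEP, 0.005% BSG, 0.005% Tween 20. Quenched with unlabelled SAM (100 uM final); 3H-MEKK2 counted by SPA.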

Assay [2] concerns the target T1, SMYD3. In words: SMYD3 cell assay (Trimethyl-MEKK2 In-Cell Western in 293T/17 cells). It is filed as cell-based. The note with it: read-out: SMYD3 Cell IC50*. In outline:
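In-Cell Western ratio of trimethyl-Lys260 MEKK2 to anti-flag signal; percent inhibition from DMSO and maximum-inhibition controls, IC50 by non-linear regression, triplicates.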

For 25 compounds, IC50 results are on record in patent publication US10577363B2, “Substituted piperidine compounds” (EPIZYME, INC., priority 2014, dated 2020).

pIC50: −log10 of the molar value.

T1 sequence (Q9H7B4 whole entry): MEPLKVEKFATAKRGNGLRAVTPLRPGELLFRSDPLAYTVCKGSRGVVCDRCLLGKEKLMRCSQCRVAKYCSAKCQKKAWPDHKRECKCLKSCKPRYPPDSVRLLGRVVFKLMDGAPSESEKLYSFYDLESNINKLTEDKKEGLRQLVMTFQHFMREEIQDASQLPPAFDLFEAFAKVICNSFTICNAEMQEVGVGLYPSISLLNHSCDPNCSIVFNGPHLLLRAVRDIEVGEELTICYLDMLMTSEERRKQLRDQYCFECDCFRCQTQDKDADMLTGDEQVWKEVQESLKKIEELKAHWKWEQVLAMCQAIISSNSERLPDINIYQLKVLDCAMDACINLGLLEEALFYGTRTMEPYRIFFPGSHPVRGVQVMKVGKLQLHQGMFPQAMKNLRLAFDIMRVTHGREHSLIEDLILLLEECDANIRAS

A word on the pIC50: it is −log10 of the IC50, conventionally taken in molar units. Take `O=C(N[C@H]1C[C@H]2CC[C@@H](C1)N2S(=O)(=O)N1CCC(NCCO)CC1)c1cc(C2CC2)on1` [compound 792, 5-cyclopropyl-N-((1R,3r,5S)-8-((4-((2-hydroxyethyl)amino)piperidin-1-yl)sulfonyl)-8-azabicyclo[3.2.1]octan-3-yl)isoxazole-3-carboxamide]: the pIC50 in assay [1] is 8.73; in assay [2] it was 7.35.
Taken in the same sequence, the figures for `CCc1cc(C(=O)N[C@H]2CCN(S(=O)(=O)N3CCC(N)CC3)[C@@H](C)C2)no1` [compound 793, N-((2S,4S)-1-((4-aminopiperidin-1-yl)sulfonyl)-2-methylpiperidin-4-yl)-5-ethylisoxazole-3-carboxamide] were 8.73 and 7.58.
The corresponding values for `O=C(N[C@H]1C[C@H]2CC[C@@H](C1)N2S(=O)(=O)N1CCC(NCCCC(F)(F)F)CC1)c1cc(C2CC2)on1` [compound 794, 5-cyclopropyl-N-((1R,3r,5S)-8-((4-((4,4,4-trifluorobutyl)amino)piperidin-1-yl)sulfonyl)-8-azabicyclo[3.2.1]octan-3-yl)isoxazole-3-carboxamide] are 8.73 and 7.46.
Taken in the same sequence, the figures for `C[C@H]1C[C@@H](NC(=O)c2cc(C3CC3)on2)CCN1S(=O)(=O)CC[C@@H]1CCN(C)C1` [compound 795, 5-cyclopropyl-N-((2S,4S)-2-methyl-1-((2-((S)-1-methylpyrrolidin-3-yl)ethyl)sulfonyl)piperidin-4-yl)isoxazole-3-carboxamide] were 8.73 and 7.56.
For the compound `CC1(N)CCN(S(=O)(=O)N2[C@@H]3CC[C@H]2C[C@@H](NC(=O)c2cc(C4CC4)on2)C3)CC1` [compound 796, N-((1R,3r,5S)-8-((4-amino-4-methylpiperidin-1-yl)sulfonyl)-8-azabicyclo[3.2.1]octan-3-yl)-5-cyclopropylisoxazole-3-carboxamide], the figures for the pIC50 in assay [1] and in assay [2] were 8.72 and 7.39, respectively.
The corresponding values for `CCc1cc(C(=O)N[C@H]2C[C@H]3CC[C@@H](C2)N3S(=O)(=O)CC2CCN(C)CC2)no1` [compound 797, 5-ethyl-N-((1R,3r,5S)-8-(((1-methylpiperidin-4-yl)methyl)sulfonyl)-8-azabicyclo[3.2.1]octan-3-yl)isoxazole-3-carboxamide] are 8.72 and 7.37.
Taken in the same sequence, the figures for `CN[C@H]1CC[C@@H](S(=O)(=O)N2[C@@H]3CC[C@H]2C[C@@H](NC(=O)c2cc(C4CC4)on2)C3)CC1` [compound 798, 5-cyclopropyl-N-((1R,3R,5S)-8-(((1s,4S)-4-(methylamino)cyclohexyl)sulfonyl)-8-azabicyclo[3.2.1]octan-3-yl)isoxazole-3-carboxamide] were 8.72 and 7.52.
Turning to `CCc1cc(C(=O)N[C@H]2C[C@H]3CC[C@@H](C2)N3S(=O)(=O)N2CCC(N)CC2)no1` [compound 799, N-((1R,3r,5S)-8-((4-aminopiperidin-1-yl)sulfonyl)-8-azabicyclo[3.2.1]octan-3-yl)-5-ethylisoxazole-3-carboxamide], the pIC50 in assay [1] was 8.69; in assay [2] it was 7.46.
The corresponding values for `CC1CN(S(=O)(=O)N2CC[C@H](NC(=O)c3cc(C4CC4)on3)C[C@@H]2C)CCC1N` (stereo partly drawn) [compound 800, N-((2S,4S)-1-((4-amino-3-methylpiperidin-l-yl)sulfonyl)-2-methylpiperidin-4-yl)-5-cyclopropylisoxazole-3-carboxamide] are 8.66 and 7.40.
The corresponding values for `NC1C2CN(S(=O)(=O)N3[C@@H]4CC[C@H]3C[C@@H](NC(=O)c3cc(C5CC5)on3)C4)CC12` (stereo partly drawn) [compound 801, N-((1R,3r,5S)-8-((6-amino-3-azabicyclo[3.1.0]hexan-3-yl)sulfonyl)-8-azabicyclo[3.2.1]octan-3-yl)-5-cyclopropylisoxazole-3-carboxamide] are 8.66 and 7.56.
Regarding `CNC1CCC(CS(=O)(=O)N2CC[C@H](NC(=O)c3cc(C4CC4)on3)C[C@@H]2C)C1` (stereo partly drawn) [compound 802, 5-cyclopropyl-N-((2S,4S)-2-methyl-1-(((3-(methylamino)cyclopentyl)methyl)sulfonyl)piperidin-4-yl)isoxazole-3-carboxamide], the pIC50 was 8.64 in assay [1] and 7.57 in assay [2].
The corresponding values for `CC1CC(N)CCN1S(=O)(=O)N1[C@@H]2CC[C@H]1C[C@@H](NC(=O)c1cc(C3CC3)on1)C2` (stereo partly drawn) [compound 803, N-((1R,3r,5S)-8-((4-amino-2-methylpiperidin-1-yl)sulfonyl)-8-azabicyclo[3.2.1]octan-3-yl)-5-cyclopropylisoxazole-3-carboxamide] are 8.64 and 7.23.
The corresponding values for `C[C@H]1C[C@@H](NC(=O)c2cc(C3CC3)on2)CCN1S(=O)(=O)N1CCC2(CCCN2)CC1` [compound 804, N-((2S,4S)-1-((1,8-diazaspiro[4.5]decan-8-yl)sulfonyl)-2-methylpiperidin-4-yl)-5-cyclopropylisoxazole-3-carboxamide] are 8.63 and 7.22.
On to `CN(C)C1CCN(S(=O)(=O)N2[C@@H]3CC[C@H]2C[C@@H](NC(=O)c2cc(C4CC4)on2)C3)CC1` [compound 805, 5-cyclopropyl-N-((1R,3r,5S)-8-((4-(dimethylamino)piperidin-1-yl)sulfonyl)-8-azabicyclo[3.2.1]octan-3-yl)isoxazole-3-carboxamide], for which the values for the pIC50 in assay [1] and in assay [2] were 8.62 and 7.27, respectively.
Take `CCC[C@H]1C[C@@H](NC(=O)c2cc(C3CC3)on2)CCN1S(=O)(=O)CCCN` [compound 806, N-((2S,4S)-1-((3-aminopropyl)sulfonyl)-2-propylpiperidin-4-yl)-5-cyclopropylisoxazole-3-carboxamide]: the pIC50 in assay [1] was 8.62; in assay [2], 6.95.
Take `CN(C)[C@H]1CC[C@H](S(=O)(=O)N2[C@@H]3CC[C@H]2C[C@@H](NC(=O)c2cc(C4CC4)on2)C3)CC1` [compound 807, 5-cyclopropyl-N-((1R,3R,5S)-8-(((1r,4R)-4-(dimethylamino)cyclohexyl)sulfonyl)-8-azabicyclo[3.2.1]octan-3-yl)isoxazole-3-carboxamide]: the pIC50 in assay [1] was 8.61; in assay [2], 7.07.
Taken in the same sequence, the figures for `C[C@H]1C[C@@H](NC(=O)c2cc(C3CC3)on2)CCN1S(=O)(=O)N1CCC(NCCO)CC1` [compound 808, 5-cyclopropyl-N-((2S,4S)-1-((4-((2-hydroxyethyl)amino)piperidin-1-yl)sulfonyl)-2-methylpiperidin-4-yl)isoxazole-3-carboxamide] were 8.61 and 7.43.
The corresponding values for `CC(C)CN1CCC(CS(=O)(=O)N2[C@@H]3CC[C@H]2C[C@@H](NC(=O)c2cc(C4CC4)on2)C3)CC1` [compound 809, 5-cyclopropyl-N-((1R,3r,5S)-8-(((1-isobutylpiperidin-4-yl)methyl)sulfonyl)-8-azabicyclo[3.2.1]octan-3-yl)isoxazole-3-carboxamide] are 8.60 and 7.37.
The corresponding values for `O=C(N[C@H]1C[C@H]2CC[C@@H](C1)N2S(=O)(=O)N1CCC(NCc2ccccc2)CC1)c1cc(C2CC2)on1` [compound 810, N-((1R,3r,5S)-8-((4-(benzylamino)piperidin-1-yl)sulfonyl)-8-azabicyclo[3.2.1]octan-3-yl)-5-cyclopropylisoxazole-3-carboxamide] are 8.60 and 7.14.
On to `CCc1cc(C(=O)N[C@H]2CCN(S(=O)(=O)c3ccc(C(C)(C)N)cc3)[C@@H](C)C2)no1` [compound 811, N-((2S,4S)-1-((4-(2-aminopropan-2-yl)phenyl)sulfonyl)-2-methylpiperidin-4-yl)-5-ethylisoxazole-3-carboxamide], for which the pIC50 was 8.59 in assay [1] and 7.47 in assay [2].
Taken in the same sequence, the figures for `CNC1CCN(S(=O)(=O)N2[C@@H]3CC[C@H]2C[C@@H](NC(=O)c2cc(C4CC4)on2)C3)CC1` [compound 812, 5-cyclopropyl-N-((1R,3r,5S)-8-((4-(methylamino)piperidin-1-yl)sulfonyl)-8-azabicyclo[3.2.1]octan-3-yl)isoxazole-3-carboxamide] were 8.58 and 7.39.
Take `C[C@H]1C[C@@H](NC(=O)c2cc(C3CC3)on2)CCN1S(=O)(=O)N1CCC2(CCN2)CC1` [compound 813, N-((2S,4S)-1-((1,7-diazaspiro[3.5]nonan-7-yl)sulfonyl)-2-methylpiperidin-4-yl)-5-cyclopropylisoxazole-3-carboxamide]: the pIC50 in assay [1] was 8.56; in assay [2], 7.45.
The corresponding values for `C[C@H]1C[C@@H](NC(=O)c2cc(C3CC3)on2)CCN1S(=O)(=O)CC[C@H]1CCN(C)C1` [compound 814, 5-cyclopropyl-N-((2S,4S)-2-methyl-1-((2-((R)-1-methylpyrrolidin-3-yl)ethyl)sulfonyl)piperidin-4-yl)isoxazole-3-carboxamide] are 8.56 and 7.35.
`CCc1cc(C(=O)N[C@H]2C[C@H]3CC[C@@H](C2)N3S(=O)(=O)[C@H]2CC[C@@H](N)CC2)no1` [compound 815, N-((1R,3R,5S)-8-(((1s,4S)-4-aminocyclohexyl)sulfonyl)-8-azabicyclo[3.2.1]octan-3-yl)-5-ethylisoxazole-3-carboxamide]: the pIC50 was 8.56 in assay [1] and 7.28 in assay [2].
The corresponding values for `C[C@@H](C1CCN(C)CC1)S(=O)(=O)N1[C@@H]2CC[C@H]1C[C@@H](NC(=O)c1cc(C3CC3)on1)C2` [compound 816, 5-cyclopropyl-N-((1R,3S,5S)-8-(((S)-1-(1-methylpiperidin-4-yl)ethyl)sulfonyl)-8-azabicyclo[3.2.1]octan-3-yl)isoxazole-3-carboxamide] are 8.54 and 7.28.
